In US20260184675A1, “CHIRAL ISOMERIC SULFITE COMPOUND AND APPLICATION THEREOF” (Chengdu Hanova BioSciences Co., Ltd, priority 2024, published 2026):

Tests used:
eggs of Thrips = experiment: Effect on hatching of eggs of Thrips, leaf disc method; assay type: in vivo; settings: 100 ppm; for Hatching rate (%): 5 days after insecticide delivery
Procedure, shortened: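 Thrip egg hatching was tested by the leaf disc method on Vicia faba discs 2.0 cm across, placed over wetted filter paper. Egg numbers on each disc were counted under a microscope before treatment. Discs were then dipped for 10 seconds in clean water or a compound solution at 100 ppm. They were kept moist under normal conditions, and hatching was surveyed five days after insecticide delivery.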

[1] = test system: eggs of Harmonia axyridis; experiment: Effect on hatching of eggs of Harmonia axyridis, egg card immersion; assay type: in vivo; settings: 100 ppm; for Number of hatched larvae 4 days after insecticide delivery, Replicate 1 / Number of hatched larvae 4 days after insecticide delivery, Replicate 2 / Number of hatched larvae 4 days after insecticide delivery, Replicate 3: Harmonia axyridis egg cards, immersed 30 seconds; for Hatching rate (%), Replicate 1 / Hatching rate (%), Replicate 2 / Hatching rate (%), Replicate 3: Harmonia axyridis eggs, 4 days after delivery
Procedure, shortened: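 Egg cards (~20 eggs each) dipped 30 s in 100 ppm insecticide, air dried and kept moist at 27° C; 5 cards per treatment, 3 replicates. Hatching assessed 4 days after treatment against pre-treatment egg counts, and control effect calculated by formula.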

eggs of Aleyrodidae = experiment: Effect on hatching of eggs of Aleyrodidae, leaf disc method; assay type: in vivo; settings: 10 ppm; for Hatching rate (%), Replicate 1 / Hatching rate (%), Replicate 2 / Hatching rate (%), Replicate 3 / Number of hatched larvae 5 days after insecticide delivery, Replicate 1 / Number of hatched larvae 5 days after insecticide delivery, Replicate 2 / Number of hatched larvae 5 days after insecticide delivery, Replicate 3: Aleyrodidae eggs; for Hatching rate (%), Replicate 1 / Hatching rate (%), Replicate 2 / Hatching rate (%), Replicate 3: 5 days after delivery; for Number of hatched larvae 5 days after insecticide delivery, Replicate 1 / Number of hatched larvae 5 days after insecticide delivery, Replicate 2 / Number of hatched larvae 5 days after insecticide delivery, Replicate 3: leaf disc
Procedure, shortened: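 Inhibition of Aleyrodidae egg hatching was tested with a leaf disc method at 10 ppm. Egg numbers on each disc were counted under a microscope before treatment. Discs bearing eggs were soaked for 10 seconds in clear water or test solution, removed, and kept under moist conditions. Hatching was checked five days after insecticide delivery and hatched larvae were counted.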

Magnaporthe grisea = assay type: cell-based; settings: 100 ppm; for Average antifungal rate (%) / Antifungal rate of Magnaporthe grisea (%), Replicate 1 / Antifungal rate of Magnaporthe grisea (%), Replicate 2 / Antifungal rate of Magnaporthe grisea (%), Replicate 3: 96-well plate; for Average antifungal rate (%): average of 3 replicates
[2] = test system: eggs of Tetranychus urticae; experiment: Effect on hatching of eggs of Tetranychus urticae, leaf disc method; assay type: in vivo; settings: 5 ppm; for Hatching rate (%): 5 days after insecticide delivery
Procedure, shortened: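 Twenty adult female Tetranychus urticae mites were placed on 2.0 cm Vicia faba leaf discs over wetted filter paper in lidded dishes kept moist, and removed within 36 hours. Eggs on each disc were counted under a microscope. The egg-bearing discs were dipped for 10 seconds in a compound solution at 5 ppm or in clear water, then kept moist, and hatching was checked five days after treatment.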

[3] = Replicate 1, listed as 1′-(R, R)
[4] = Replicate 2, listed as 1′-(R, R)
[5] = Replicate 3, listed as 1′-(R, R)
[6] = Replicate 1, listed as 19′-(S, S)
[7] = Replicate 2, listed as 19′-(S, S)
[8] = Replicate 3, listed as 19′-(S, S)

## CC(COc1ccc(Cl)cc1Cl)OS(=O)OCCF [1′-(R,R)]
Eggs of Thrips; [3]
  Hatching rate (%): 12.68%
  Number of hatched larvae 5 days after insecticide delivery: 18
Eggs of Thrips; [4]
  Hatching rate (%): 12.79%
  Number of hatched larvae 5 days after insecticide delivery: 11
Eggs of Thrips; [5]
  Hatching rate (%): 14.29%
  Number of hatched larvae 5 days after insecticide delivery: 15
[1]; listed as 1′-(R, R)
  Number of hatched larvae 4 days after insecticide delivery, Replicate 1: 15
  Number of hatched larvae 4 days after insecticide delivery, Replicate 2: 16
  Number of hatched larvae 4 days after insecticide delivery, Replicate 3: 18
  Hatching rate (%), Replicate 1: 17.05%
  Hatching rate (%), Replicate 2: 16.84%
  Hatching rate (%), Replicate 3: 16.22%
Eggs of Aleyrodidae; listed as 1′-(R, R)
  Hatching rate (%), Replicate 1: 13.95%
  Hatching rate (%), Replicate 2: 15.38%
  Hatching rate (%), Replicate 3: 13.21%
  Number of hatched larvae 5 days after insecticide delivery, Replicate 1: 18
  Number of hatched larvae 5 days after insecticide delivery, Replicate 2: 14
  Number of hatched larvae 5 days after insecticide delivery, Replicate 3: 14
Magnaporthe grisea
  inhibitory rate against Magnaporthe grisea (in words): strong inhibitory rate
  Average antifungal rate (%): 84.86%
  Antifungal rate of Magnaporthe grisea (%), Replicate 1: 84.82%
  Antifungal rate of Magnaporthe grisea (%), Replicate 2: 83.06%
  Antifungal rate of Magnaporthe grisea (%), Replicate 3: 86.71%
[2]; [3]
  Hatching rate (%): 17.91%
  Number of hatched larvae 5 days after insecticide delivery: 12
[2]; [4]
  Hatching rate (%): 19.28%
  Number of hatched larvae 5 days after insecticide delivery: 16

## CC(COc1ccc(Cl)cc1Cl)OS(=O)OCCF (centres unmarked) [Compound 1′]
Eggs of Thrips
  inhibitory activity on the hatching of eggs of Thrips (in words): strong inhibitory activities
Eggs of Thrips; Replicate 1
  Hatching rate (%): 0.00%
  Number of hatched larvae 5 days after insecticide delivery: 0
Eggs of Thrips; Replicate 2
  Hatching rate (%): 0.00%
  Number of hatched larvae 5 days after insecticide delivery: 0
Eggs of Thrips; Replicate 3
  Hatching rate (%): 0.97%
  Number of hatched larvae 5 days after insecticide delivery: 1
[1]
  inhibitory activity on the hatching of eggs of Harmonia axyridis (in words): strong inhibitory activities
  Number of hatched larvae 4 days after insecticide delivery, Replicate 1: 6
  Number of hatched larvae 4 days after insecticide delivery, Replicate 2: 4
  Number of hatched larvae 4 days after insecticide delivery, Replicate 3: 7
  Hatching rate (%), Replicate 1: 5.88%
  Hatching rate (%), Replicate 2: 4.17%
  Hatching rate (%), Replicate 3: 6.60%
Eggs of Aleyrodidae
  inhibitory activity on the hatching of eggs of Aleyrodidae (in words): strong inhibitory activities
  Hatching rate (%), Replicate 1: 1.87%
  Hatching rate (%), Replicate 2: 0.00%
  Hatching rate (%), Replicate 3: 1.14%
  Number of hatched larvae 5 days after insecticide delivery, Replicate 1: 2
  Number of hatched larvae 5 days after insecticide delivery, Replicate 2: 0
  Number of hatched larvae 5 days after insecticide delivery, Replicate 3: 1
Magnaporthe grisea
  inhibitory rate against Magnaporthe grisea (in words): strong inhibitory rate
  Average antifungal rate (%): 94.28%
  Antifungal rate of Magnaporthe grisea (%), Replicate 1: 95.78%
  Antifungal rate of Magnaporthe grisea (%), Replicate 2: 98.76%
  Antifungal rate of Magnaporthe grisea (%), Replicate 3: 88.30%
[2]
  inhibitory activity on the hatching of eggs of Tetranychus urticae (in words): strong inhibitory activities
[2]; Replicate 1
  Hatching rate (%): 0.00%
  Number of hatched larvae 5 days after insecticide delivery: 0
[2]; Replicate 2
  Hatching rate (%): 1.98%
  Number of hatched larvae 5 days after insecticide delivery: 2

## CC[C@@H](COS(=O)OCCF)Oc1ccc(Cl)cc1Cl (stereo partly drawn) [19′-(S,S)]
Eggs of Thrips
  inhibitory activity on the hatching of eggs of Thrips (in words): strong inhibitory activities
Eggs of Thrips; [6]
  Hatching rate (%): 0.00%
  Number of hatched larvae 5 days after insecticide delivery: 0
Eggs of Thrips; [7]
  Hatching rate (%): 0.00%
  Number of hatched larvae 5 days after insecticide delivery: 0
Eggs of Thrips; [8]
  Hatching rate (%): 0.00%
  Number of hatched larvae 5 days after insecticide delivery: 0
[1]
  inhibitory activity on the hatching of eggs of Harmonia axyridis (in words): strong inhibitory activities
[1]; listed as 19′-(S, S)
  Number of hatched larvae 4 days after insecticide delivery, Replicate 1: 0
  Number of hatched larvae 4 days after insecticide delivery, Replicate 2: 0
  Number of hatched larvae 4 days after insecticide delivery, Replicate 3: 0
  Hatching rate (%), Replicate 1: 0.00%
  Hatching rate (%), Replicate 2: 0.00%
  Hatching rate (%), Replicate 3: 0.00%
Eggs of Aleyrodidae
  inhibitory activity on the hatching of eggs of Aleyrodidae (in words): strong inhibitory activities
Eggs of Aleyrodidae; listed as 19′-(S, S)
  Hatching rate (%), Replicate 1: 0.00%
  Hatching rate (%), Replicate 2: 0.00%
  Hatching rate (%), Replicate 3: 0.00%
  Number of hatched larvae 5 days after insecticide delivery, Replicate 1: 0
  Number of hatched larvae 5 days after insecticide delivery, Replicate 2: 0
  Number of hatched larvae 5 days after insecticide delivery, Replicate 3: 0
Magnaporthe grisea
  inhibitory rate against Magnaporthe grisea (in words): strong inhibitory rate
  Average antifungal rate (%): 97.09%
  Antifungal rate of Magnaporthe grisea (%), Replicate 1: 97.41%
  Antifungal rate of Magnaporthe grisea (%), Replicate 2: 96.58%
  Antifungal rate of Magnaporthe grisea (%), Replicate 3: 97.29%
[2]
  inhibitory activity on the hatching of eggs of Tetranychus urticae (in words): strong inhibitory activities
[2]; [6]
  Hatching rate (%): 0.00%
  Number of hatched larvae 5 days after insecticide delivery: 0
[2]; [7]
  Hatching rate (%): 0.00%
  Number of hatched larvae 5 days after insecticide delivery: 0
